{"source": "patent US9802888B2", "about": "“STAT3 inhibitors” (UNIVERSITY OF HAWAII, priority 2013, dated 2017)", "key": {"[1]": {"system": "pY1068EGFR, pY416Src, pJak2, pShc, pErk1/2, pS473Akt", "type": "cell-based, human", "settings": "concentrations that inhibit intracellular Stat3 activation (3-10 μM)", "text": "(§1) FIG. 2. […] Positions of STATs:DNA complexes or proteins in gel are labeled; control lanes (0) represent nuclear extracts treated with 0.05% DMSO, or nuclear extracts or whole-cell lysates prepared from 0.05% DMSO-treated cells. Values shown in each panel are means plus standard deviations of at least four independent transfections, each performed in triplicate. For each transfection, luciferase activity was normalized to transfection efficiency, with β-Gal activity as an internal control. *-<0.05. Data are representative of 3-4 independent determinations. FIG. 2 (H). […] FIG. 2 (I).\n(§2) Turkson et al., Novel peptidomimetic inhibitors of signal transducer and activator of transcription 3 dimerization and biological activity. […] Mol. Cell. […] Mol. Cell. […] Mol. Cell."}, "[2]": {"system": "Bcl-2, Bcl-xL, Cyclin D1, c-Myc, and Survivin", "assay": "Immunoblotting of Stat3-regulated gene expression", "settings": "MDA-MB-231 and U251 cells; 24 h-treatment (5 uM)"}, "Stat1:Stat1": {"target": "T1, Stat1:Stat1 (Mus musculus, UniProt P42225)", "T1 construct": "endogenous in cells; host or cells: EGF-stimulated NIH3T3/hEGFR (nuclear extract)", "T1 sequence (P42225 2-749 limits assumed)": "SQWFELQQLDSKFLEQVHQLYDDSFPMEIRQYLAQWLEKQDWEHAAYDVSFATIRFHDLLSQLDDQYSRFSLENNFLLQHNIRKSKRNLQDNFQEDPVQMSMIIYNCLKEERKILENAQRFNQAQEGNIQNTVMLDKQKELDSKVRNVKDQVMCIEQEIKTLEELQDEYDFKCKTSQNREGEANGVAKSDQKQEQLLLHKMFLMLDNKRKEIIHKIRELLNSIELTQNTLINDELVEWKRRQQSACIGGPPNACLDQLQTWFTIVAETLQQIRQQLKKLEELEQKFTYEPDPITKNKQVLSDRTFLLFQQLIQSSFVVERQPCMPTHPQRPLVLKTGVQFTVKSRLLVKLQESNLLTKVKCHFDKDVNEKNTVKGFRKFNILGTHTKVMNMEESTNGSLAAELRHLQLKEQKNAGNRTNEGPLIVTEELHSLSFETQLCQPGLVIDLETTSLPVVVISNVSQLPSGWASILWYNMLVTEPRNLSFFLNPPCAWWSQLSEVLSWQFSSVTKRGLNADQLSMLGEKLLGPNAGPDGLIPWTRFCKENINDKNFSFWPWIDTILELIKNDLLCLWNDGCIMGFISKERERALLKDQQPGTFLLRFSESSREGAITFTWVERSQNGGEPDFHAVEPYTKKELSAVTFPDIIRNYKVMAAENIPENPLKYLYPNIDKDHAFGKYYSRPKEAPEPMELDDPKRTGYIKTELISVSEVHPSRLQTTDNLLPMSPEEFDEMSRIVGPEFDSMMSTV", "assay": "Stat1 DNA-binding activity, EMSA with MGFe probe, nuclear extracts of EGF-stimulated NIH3T3/hEGFR", "type": "biochemical", "settings": "for effect on Stat1:Stat1 DNA-binding activity: EMSA, MGFe probe; for disruption of Stat1 DNA-binding activity: concentrations up to 20 μM", "description": "Nuclear extract preparations and electrophoretic mobility shift assay (EMSA) were carried out as previously described. Yu et al., 1995; Turkson et al., Stat3 activation by Src induces specific gene regulation and is required for cell transformation. Mol. Cell. Biol. 18:2545-2552 (1998). The ^32P-labeled oligonucleotide probes used were hSIE (high affinity sis-inducible element from the c-fos gene, m67 variant, 5′-[…]) (SEQ ID NO: 1) that binds Stat1 and Stat3 and MGFe (mammary gland factor element from the bovine β-casein gene promoter, 5′-[…]) (SEQ ID NO: 2) for Stat1 and Stat5 binding. Wagner et al., The SIF binding element confers sis/PDGF inducibility onto the c-fos promoter. EMBO J. 9:4477-4484 (1990); Gouilleux et al., Prolactin and interleukin-2 receptors in T lymphocytes signal through a MGF-STATS-like transcription factor. Endocrinology 136:5700-5708 (1995). Except where indicated, nuclear extracts were pre-incubated with compound for 30 min at room temperature prior to incubation with the radiolabeled probe for 30 min at 30° C. before subjecting to EMSA analysis. Bands corresponding to DNA-binding activities were scanned and quantified for each concentration of compound using ImageQuant and plotted as percent of control (vehicle) against concentration of compound, from which the IC50 values were derived, as previously reported. […] J Biol Chem. 280:32979-32988 (2005).\n[…]. Zhang et al. (2012). […]. Siddiquee et al., Selective chemical probe inhibitor of Stat3, identified through structure-based virtual screening, induces antitumor activity, Proc Natl Acad Sci USA. 104:7391-7396 (2007)."}, "[3]": {"system": "Stat3-dependent luciferase reporter, pLucTKS3", "assay": "Stat3-dependent luciferase reporter in NIH3T3 co-transfected with v-Src", "type": "cell-based, mouse", "settings": "3 or 5 μM", "text": "as §1, §2"}, "EGF receptor and Stat3": {"target": "EGF receptor and Stat3 (Mus musculus, UniProt P42227)", "sequence (P42227 2-770 limits assumed)": "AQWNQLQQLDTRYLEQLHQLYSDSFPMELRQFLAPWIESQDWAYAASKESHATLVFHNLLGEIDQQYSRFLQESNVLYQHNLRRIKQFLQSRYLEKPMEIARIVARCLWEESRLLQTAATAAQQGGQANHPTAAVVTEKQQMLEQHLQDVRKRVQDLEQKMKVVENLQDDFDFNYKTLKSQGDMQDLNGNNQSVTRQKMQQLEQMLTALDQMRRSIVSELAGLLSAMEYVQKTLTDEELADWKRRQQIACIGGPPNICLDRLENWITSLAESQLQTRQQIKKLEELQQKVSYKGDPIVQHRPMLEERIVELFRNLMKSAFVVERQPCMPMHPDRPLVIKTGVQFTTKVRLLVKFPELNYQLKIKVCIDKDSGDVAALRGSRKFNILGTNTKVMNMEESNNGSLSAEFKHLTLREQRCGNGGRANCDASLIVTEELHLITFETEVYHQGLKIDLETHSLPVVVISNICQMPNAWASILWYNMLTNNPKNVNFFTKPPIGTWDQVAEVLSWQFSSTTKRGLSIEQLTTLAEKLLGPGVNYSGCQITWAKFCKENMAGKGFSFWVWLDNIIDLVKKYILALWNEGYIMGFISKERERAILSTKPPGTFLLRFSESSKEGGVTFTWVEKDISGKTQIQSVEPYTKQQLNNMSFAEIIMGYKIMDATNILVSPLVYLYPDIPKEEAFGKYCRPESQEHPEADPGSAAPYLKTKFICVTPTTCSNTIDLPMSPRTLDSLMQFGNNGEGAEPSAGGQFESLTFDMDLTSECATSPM", "assay": "Co-immunoprecipitation of EGF receptor and Stat3 in EGF-stimulated NIH3T3/EGFR", "settings": "pre-treatment 10 μM for 5 min to 24 h", "source_text": "(§3) Primary antibodies used were anti-Stat3, pY705Stat3, pY416Src, Src, pErk1/2, Erk1/2, EGFR, pEGFR, pJAK2, c-Myc, Bcl-xL, Bcl-2, Survivin, and β-Actin (Cell Signaling, Danvers), and VEGF (Santa Cruz Biotech, Santa Cruz)."}, "[4]": {"system": "Stat3-independent luciferase reporter, pLucSRE", "assay": "Stat3-independent luciferase reporter in NIH3T3 co-transfected with v-Src", "type": "cell-based, mouse", "settings": "similar treatment (3 or 5 μM)", "text": "as §1, §2"}, "pY705Stat3": {"target": "pY705Stat3 (Mus musculus, UniProt P42227)", "sequence (P42227 whole entry)": "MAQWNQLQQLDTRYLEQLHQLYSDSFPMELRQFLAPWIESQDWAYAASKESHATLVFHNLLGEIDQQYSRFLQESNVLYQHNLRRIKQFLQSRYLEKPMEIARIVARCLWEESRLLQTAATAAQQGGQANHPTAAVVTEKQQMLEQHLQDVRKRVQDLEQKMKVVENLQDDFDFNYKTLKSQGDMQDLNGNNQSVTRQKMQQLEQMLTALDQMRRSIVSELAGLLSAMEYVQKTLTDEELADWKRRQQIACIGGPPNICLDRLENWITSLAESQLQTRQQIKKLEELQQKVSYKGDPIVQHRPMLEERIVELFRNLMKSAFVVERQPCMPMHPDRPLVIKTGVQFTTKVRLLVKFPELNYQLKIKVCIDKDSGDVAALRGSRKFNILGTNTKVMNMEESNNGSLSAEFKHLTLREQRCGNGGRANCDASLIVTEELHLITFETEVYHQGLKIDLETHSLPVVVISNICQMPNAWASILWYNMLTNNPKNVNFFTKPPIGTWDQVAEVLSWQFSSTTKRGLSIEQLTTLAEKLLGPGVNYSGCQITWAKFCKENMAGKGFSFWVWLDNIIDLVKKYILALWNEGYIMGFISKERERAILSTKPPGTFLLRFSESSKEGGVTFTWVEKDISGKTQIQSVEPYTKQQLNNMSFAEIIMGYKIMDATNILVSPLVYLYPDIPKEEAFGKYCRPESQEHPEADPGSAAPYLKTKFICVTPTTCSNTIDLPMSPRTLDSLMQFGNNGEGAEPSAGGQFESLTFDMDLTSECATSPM", "assay": "EGF-induced Stat3 phosphorylation in NIH3T3/hEGFR, immunoblotting", "settings": "cells pre-treated for 24 h, 10 μM", "source_text": "as §3"}, "[5]": {"assay": "In vivo pharmacokinetic analysis, serum and brain tissue levels", "design": "species or system mouse", "settings": "mice, single dose tail vein injection 3 mg/kg"}, "[6]": {"system": "glioma, breast cancer or pancreatic cancer", "assay": "Treatment of subjects with cancer", "type": "in vivo", "settings": "intravenous or oral, 0.08 mg/kg to 0.4 mg/kg"}, "U251 cells": {"system": "U251 cells", "assay": "Intracellular levels by LC-MS of cell extracts", "type": "in vitro ADME, human", "settings": "U251 cells treated once with 5 μM", "text": "The intracellular and tissue levels of SH5-07 were studied, following a single treatment."}}, "note": "Entries after “also recorded” stand apart in the source; their conditions may differ."}
{"smiles": "CN(CC(=O)N(Cc1ccc(C2CCCCC2)cc1)c1ccc(C(=O)O)cc1)S(=O)(=O)c1c(F)c(F)c(F)c(F)c1F", "note": "[SH4-54]", "values": [{"measurement": "effect on phosphorylation of EGFR, Src, Jak2, Shc, ERK1/2, Akt", "setting": "[1]", "value": "little or no effect"}, {"measurement": "expression of Stat3-regulated genes", "setting": "[2]", "value": "down-regulated"}, {"measurement": "effect on Stat1:Stat1 DNA-binding activity", "setting": "Stat1:Stat1", "value": "little or no effect; also recorded: minimal effects"}, {"measurement": "disruption of Stat1 DNA-binding activity", "setting": "Stat1:Stat1", "value": "little or no disruption"}]}
{"smiles": "CN(CC(=O)N(Cc1ccc(C2CCCCC2)cc1)c1ccc(C(=O)NO)cc1)S(=O)(=O)c1c(F)c(F)c(F)c(F)c1F", "note": "[SH5-07]", "values": [{"measurement": "induction by v-Src of pLucTKS3 luciferase reporter", "setting": "[3]", "value": "significantly (p<0.01) inhibited"}, {"measurement": "co-IP between EGF receptor and Stat3 promoted by EGF", "setting": "EGF receptor and Stat3", "value": "suppressed"}, {"measurement": "induction of pLucSRE luciferase reporter", "setting": "[4]", "value": "no attenuating effect"}, {"measurement": "EGF-induced Stat3 phosphorylation (pY705Stat3)", "setting": "pY705Stat3", "value": "inhibited"}, {"measurement": "average level in brain tissue at 10 min", "setting": "[5]", "value": 7.76, "unit": "fmole/mg tissue"}, {"measurement": "average level in brain tissue at 60 min", "setting": "[5]", "value": 8.19, "unit": "fmole/mg tissue"}, {"measurement": "concentration at 10 min", "setting": "[5]; mouse, serum, intravenous, read-out: average level in serum at 10 min post-dosing", "value": 13.5, "unit": "µM"}, {"measurement": "concentration at 60 min", "setting": "[5]; mouse, serum, intravenous, read-out: average level in serum at 60 min", "value": 4.67, "unit": "µM"}, {"measurement": "tumor response in subjects", "setting": "[6]", "value": "shrinkage of the tumors, or slowing of the progession of tumor growth is observed"}, {"measurement": "intracellular levels at 1 h", "setting": "U251 cells", "value": "1,238±181 μM"}, {"measurement": "intracellular levels at 6 h", "setting": "U251 cells", "value": 27.6, "unit": "µM"}, {"measurement": "intracellular levels at 24 h", "setting": "U251 cells", "value": "background levels"}, {"measurement": "expression of Stat3-regulated genes", "setting": "[2]", "value": "down-regulated; also recorded: significantly suppressed"}, {"measurement": "effect on Stat1:Stat1 DNA-binding activity", "setting": "Stat1:Stat1", "value": "little or no effect; also recorded: minimal effects"}, {"measurement": "disruption of Stat1 DNA-binding activity", "setting": "Stat1:Stat1", "value": "little or no disruption"}]}
